Some test systems named below: NCI-H522 lung; UACC-257 melanoma; A498 renal; OVCAR-8 ovarian; SW-620 colon; SNB-75 CNS; HCC-2998 colon; NCI-H460 lung.
Common to all, as to assay: DTP human tumour cell line panel, 48 h

By TGI is commonly meant the concentration giving total growth inhibition. A high value points to less potent growth arrest. As a reminder, the GI50 is the concentration giving 50% growth inhibition.

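Grown in 96-well plates, cells were treated for 48 hours with each compound at five concentrations. Insufficient inhibition: endpoint recorded as highest concentration tested. Here, GI50 denotes the concentration required for 50% inhibition of growth. TGI is the concentration that stops growth completely.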 A value given as a limit tells only on which side of the number the result lay.

As to `CCCN(CCCCC(NC(C)=O)C(=O)NCc1ccccc1)C(=O)N(C)N=O` (configuration not stated), the TGI with NCI-H522 lung, in the assay with UACC-257 melanoma, in the assay with A498 renal, in the assay on OVCAR-8 ovarian, in the assay on SW-620 colon and with SNB-75 CNS was over 100 µM throughout. Also, the TGI with HCC-2998 colon and in the assay with NCI-H460 lung was over 100 µM in each case.

In the case of `COc1ccc(C(=O)C(c2ccc(OC)cc2)C2(O)C(=O)Nc3ccccc32)cc1` (configuration not stated), the TGI with NCI-H522 lung, with UACC-257 melanoma, in the assay on SW-620 colon and in the assay on SNB-75 CNS was over 100 µM throughout.

For `O=C(O)C(CP(=O)(O)O)=C(Cl)Cl`, the TGI in the assay on UACC-257 melanoma, in the assay on OVCAR-8 ovarian, in the assay on SW-620 colon, in the assay with SNB-75 CNS, in the assay with HCC-2998 colon and with NCI-H460 lung was over 100 µM throughout.

For `COC(=O)C1=C(O)c2cc(OC)c(OC)c(OC)c2[C@H](c2cc(OC)c(OC)c(OC)c2)C1C(=O)OC` (some centres not stated), the TGI in the assay with NCI-H522 lung is 43.5 µM; with UACC-257 melanoma it was over 100 µM; in the assay on A498 renal it was over 100 µM; in the assay on OVCAR-8 ovarian, over 100 µM; with SW-620 colon it was over 100 µM; in the assay on SNB-75 CNS, over 100 µM. Also, the TGI with HCC-2998 colon was 83.9 µM; in the assay on NCI-H460 lung it was over 100 µM.

In the case of `Cc1c(Cl)ccc2c1NC(=O)C2(O)C(C(=O)c1ccccc1)c1ccccc1` (configuration not stated), the TGI in the assay with NCI-H522 lung is 93.7 µM; in the assay on UACC-257 melanoma, 89 µM; in the assay with A498 renal, 70.1 µM; in the assay on OVCAR-8 ovarian, over 100 µM; in the assay with SW-620 colon it was over 100 µM; in the assay on SNB-75 CNS, over 100 µM. Also, the TGI in the assay on HCC-2998 colon and in the assay with NCI-H460 lung was over 100 µM each time.

For `O=S1c2ccccc2N=C(c2ccc3ccccc3c2)CC1C1=CC=CCC1` (configuration not stated), the TGI was determined as 33.2 µM in the assay on NCI-H522 lung; 34.8 µM in the assay with UACC-257 melanoma; 49.4 µM in the assay on OVCAR-8 ovarian; 36.7 µM with SW-620 colon; 50.6 µM in the assay on SNB-75 CNS; 26.2 µM in the assay on HCC-2998 colon. Also, the TGI in the assay on NCI-H460 lung came to 54.5 µM.

Consider `COC(=O)/C=C1/CCC2[C@@H](C(=O)CC3[C@]2(C)CCC[C@@]3(C)C(=O)OC)C1C` (some centres not stated), for which the TGI in the assay with NCI-H522 lung is 19.7 µM; in the assay with UACC-257 melanoma it was 24.7 µM; in the assay on A498 renal, 34.4 µM; in the assay on OVCAR-8 ovarian, 34.9 µM; with SW-620 colon, 22.5 µM; in the assay with HCC-2998 colon, 39.8 µM. For the same molecule, the TGI in the assay on NCI-H460 lung came to 51.7 µM.

As for `CN(C)CCNC(=O)c1cc2ccccc2c2nc3ccccc3nc12`, the TGI with NCI-H522 lung is over 100 µM; in the assay with UACC-257 melanoma, 3.09 µM; in the assay with A498 renal, 2.4 µM; with OVCAR-8 ovarian, over 20.4 µM; in the assay with SNB-75 CNS, 4.26 µM; with HCC-2998 colon, 3.92 µM.

In the case of `COc1cc(/C=C2\[C@H]3c4c(c(OC)c(C)c(OC)c4OC)C[C@@H](C(=O)N2Cc2ccccc2)N3C(=O)OCC(C)C)c(OC)c(C)c1OC`, the TGI in the assay on NCI-H522 lung was over 100 µM; in the assay with UACC-257 melanoma, over 100 µM; in the assay on A498 renal, over 100 µM; with OVCAR-8 ovarian, over 100 µM; in the assay on SW-620 colon it was over 31.6 µM; with SNB-75 CNS, over 100 µM. The TGI in the assay with HCC-2998 colon and with NCI-H460 lung was over 100 µM in each case.

As to `CCOC(C)C(/C=N/NC(N)=S)=NNC(N)=S` (configuration not stated), the TGI in the assay on NCI-H522 lung is over 100 µM; with UACC-257 melanoma, over 100 µM; in the assay on A498 renal, 85.2 µM; with OVCAR-8 ovarian it was over 100 µM; in the assay on SW-620 colon, over 100 µM; in the assay with SNB-75 CNS it was over 89.4 µM. The TGI with HCC-2998 colon and in the assay with NCI-H460 lung was over 100 µM throughout.

In the case of `COc1cc(/C=C2/C(=O)N(C(=O)OC(C)C)C(Cc3cc(OC)c(OC)c(C)c3OC)C(=O)N2Cc2ccccc2)c(OC)c(C)c1OC` (configuration not stated), the TGI in the assay with NCI-H522 lung was 32 µM; in the assay on UACC-257 melanoma, over 100 µM; in the assay on A498 renal, over 100 µM; with OVCAR-8 ovarian, over 100 µM; with SW-620 colon, over 100 µM; with SNB-75 CNS it was over 100 µM. Besides, the TGI in the assay with HCC-2998 colon and with NCI-H460 lung was over 100 µM throughout.

For the molecule `CC(=O)OC(/C=C1/C=CC(=O)O1)COC(=O)c1ccccc1` (configuration not stated), the TGI in the assay on NCI-H522 lung, with UACC-257 melanoma, in the assay with A498 renal, with OVCAR-8 ovarian, in the assay on SW-620 colon and with SNB-75 CNS was over 31.2 µM each time. For the same molecule, the TGI in the assay with HCC-2998 colon and in the assay on NCI-H460 lung was over 31.2 µM in each case.

`Cc1ccc(NC(=O)C(=O)C2C(=O)N(c3ccccc3)N=C2N)cc1C` (configuration not stated): the TGI in the assay on NCI-H522 lung, with UACC-257 melanoma, with A498 renal, in the assay with OVCAR-8 ovarian, with SW-620 colon and in the assay on SNB-75 CNS was over 100 µM in each case. This molecule also returned a TGI in the assay with HCC-2998 colon of over 100 µM.

Regarding `CCOC(=O)/C(O)=C(/c1n[nH]c(=O)c2ccccc12)[N+](=O)[O-]`, the TGI in the assay with NCI-H522 lung, in the assay on UACC-257 melanoma, in the assay with A498 renal, in the assay on OVCAR-8 ovarian, in the assay on SW-620 colon and with SNB-75 CNS was over 100 µM each time. The TGI in the assay on HCC-2998 colon and in the assay on NCI-H460 lung was over 100 µM each time.

In the case of `[O-]c1c2c(nn1-c1ccccc1)c1ccccc1c[n+]2Cc1ccccc1`, the TGI in the assay with NCI-H522 lung, with UACC-257 melanoma, with OVCAR-8 ovarian, in the assay on SW-620 colon, in the assay with SNB-75 CNS and in the assay with HCC-2998 colon was over 100 µM in each case. This molecule came in with a TGI in the assay on NCI-H460 lung of over 100 µM.

On to `Cc1ccc(NC(=O)CCC(CC(=O)C(C)(C)C)=NNC(=O)C(=O)NN)cc1C`, for which the TGI in the assay on NCI-H522 lung, with UACC-257 melanoma, with OVCAR-8 ovarian, in the assay on SW-620 colon, in the assay on SNB-75 CNS and in the assay with HCC-2998 colon was over 100 µM each time. The molecule also showed a TGI with NCI-H460 lung of over 100 µM.

Turning to `O=c1/c(=C/c2cccc([N+](=O)[O-])c2)sc2nc3ccccc3n12`, the TGI with UACC-257 melanoma, in the assay with A498 renal, in the assay with OVCAR-8 ovarian, with SW-620 colon, in the assay with SNB-75 CNS and in the assay with HCC-2998 colon was over 100 µM throughout. Besides, in the assay with NCI-H460 lung, the TGI was over 100 µM.

Regarding `CCOC(=O)C12CCCC1(O)N(NC(=O)c1ccccc1)C(C)=C2C(=O)OC` (configuration not stated), the TGI in the assay with NCI-H522 lung, with UACC-257 melanoma, with A498 renal, in the assay on OVCAR-8 ovarian, in the assay with SW-620 colon and in the assay on HCC-2998 colon was over 100 µM each time. The molecule further registered a TGI in the assay on NCI-H460 lung of over 100 µM.

For the molecule `COC(=O)C1=C2CCC(=O)[C@@]2(C)C(OC(C)=O)C=CC1` (some centres not stated), the TGI in the assay on UACC-257 melanoma, in the assay with A498 renal, in the assay on OVCAR-8 ovarian, in the assay with SW-620 colon, in the assay on SNB-75 CNS and in the assay with HCC-2998 colon was over 100 µM throughout. This molecule gave a TGI in the assay with NCI-H460 lung of over 100 µM.

Regarding `CCOC12OC3=C(CC1CC1=C(CCC1=O)O2)C(=O)CC3` (configuration not stated), the TGI in the assay on NCI-H522 lung, in the assay on UACC-257 melanoma, in the assay with A498 renal, with OVCAR-8 ovarian, in the assay with SW-620 colon and with SNB-75 CNS was over 100 µM each time. In the assay on NCI-H460 lung, this molecule had a TGI of over 100 µM.

On to `CC1(C)COC(C23C4C5C2C2C3C4C52I)=N1` (configuration not stated), for which the TGI in the assay on UACC-257 melanoma, in the assay on A498 renal, in the assay on OVCAR-8 ovarian, in the assay with SW-620 colon, in the assay with HCC-2998 colon and with NCI-H460 lung was over 100 µM throughout.

With `C/C(=C\C(C)COCc1ccccc1)[C@H](COCc1ccccc1)OCc1ccccc1` (some centres not stated), the TGI in the assay on NCI-H522 lung, in the assay with A498 renal, with OVCAR-8 ovarian, with SW-620 colon, in the assay on SNB-75 CNS and with HCC-2998 colon was over 100 µM each time. The same molecule showed a TGI in the assay on NCI-H460 lung of over 100 µM.

As for `CC(=O)[CH-]C(=O)c1ccccc1.CC(=O)[CH-]C(=O)c1ccccc1.CC[O-].CC[O-].[Zr+4]`, the GI50 in the assay on NCI-H522 lung, in the assay with UACC-257 melanoma, with OVCAR-8 ovarian, in the assay with SW-620 colon, in the assay with SNB-75 CNS and in the assay with HCC-2998 colon was over 100 µM throughout. For the same molecule, in the assay on NCI-H460 lung, the GI50 was over 100 µM. In addition, the total growth inhibition concentration (TGI) with NCI-H522 lung, in the assay on UACC-257 melanoma, in the assay with OVCAR-8 ovarian, in the assay on SW-620 colon, in the assay with SNB-75 CNS and in the assay on HCC-2998 colon was over 100 µM throughout. For the same molecule, the TGI in the assay with NCI-H460 lung was over 100 µM.

As for `COc1ccc(C(=O)OCC2OC(n3cnc4c(=S)nc[nH]c43)C(OC(=O)c3ccc(OC)cc3)C2OC(=O)c2ccc(OC)cc2)cc1` (configuration not stated), the TGI in the assay on NCI-H522 lung is 54.5 µM; with UACC-257 melanoma, over 100 µM; with OVCAR-8 ovarian, over 100 µM; in the assay with SW-620 colon, over 100 µM; with SNB-75 CNS, 77 µM; in the assay on HCC-2998 colon, over 100 µM. In the assay with NCI-H460 lung, this molecule came in with a TGI of over 100 µM.
